Laboratory results taken from patent US20230089368A1, “POLYAROMATIC UREA DERIVATIVES AND THEIR USE IN THE TREATMENT OF MUSCLE DISEASES” (ANAGENESIS BIOTECHNOLOGIES S.A.S., priority 2019, published 2023).

Tests used:
[1] = test system: muscle progenitors (hMP) from DMD hiPSC or WT hiPSC; assay: Myotube assay: myogenic activity (total myotube area per well); type: cell-based, human; settings: Homo sapiens, 72 h, myotube assay, compounds incubated 3 days; for Emax: read-out: MA (normalized Myotube Area, efficacy)
Summary of the method: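 DMD or WT hiPSC-derived muscle progenitors plated on collagen I in K5 medium with 5 μM Y-27632, treated with compound (1.5 nM–30 μM) for 3 days at 37° C. Cells were fixed, stained for alpha-actinin and imaged for total myotube area per well. EC50 and normalized myotube area (MA) taken from duplicate-averaged data.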

[2] = test system: satellite-like cells (Pax7-positive cells) in hMP; assay: Myotube assay: Pax7-positive (satellite-like) cell quantification; type: cell-based, human; design: key to Pax7% (pool of Pax7-positive cells) / Pax7: −: Depletes the pool of cells, while positively affects the myotubes; +: Maintains or increases the pool of cells, with at least 1 of the highest concentration known to be cytotoxic; ++: Maintains or increases the pool of cells, without any toxicity; settings: myotube assay, compounds incubated 3 days
Summary of the method: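 DMD hiPSC-derived muscle progenitors (hMP) proliferated 4 days, then plated on collagen I in K5 medium with 5 μM Y-27632. Compound added at 1.5 nM–30 μM for 3 days at 37° C, then cells fixed and immunostained. Pax7-positive cells counted as percentage of total nuclei, duplicates averaged.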

EC50 ([1]; 10 points dose-response 1.5 nM to 30 μM, read-out: EC50 (myogenic activity, half-maximal generation of myotubes)) [µM] | Compound | Emax [1] [%] | Pax7% (pool of Pax7-positive cells) [2]
– | CC(C)(C)c1cc(NC(=O)Nc2ccc(Oc3ccnc4[nH]c(=O)cnc34)cc2F)n(CCN2CCOCC2)n1 [(k), 1-(3-(tert-butyl)-1-(2-morpholinoethyl)-1H-pyrazol-5-yl)-3-(2-fluoro-4-((3-oxo-3,4-dihydropyrido[2,3-b]pyrazin-8-yl)oxy)phenyl)urea] | 50 to 75 | ++
– | CSc1cc(Oc2ccnc3[nH]c(=O)cnc23)ccc1NC(=O)Nc1cc(C(C)(C)C)nn1-c1ccc(Cl)cc1 [(ao), 1-(3-(tert-butyl)-1-(4-chlorophenyl)-1H-pyrazol-5-yl)-3-(2-(methylthio)-4-((3-oxo-3,4-dihydropyrido[2,3-b]pyrazin-8-yl)oxy)phenyl)urea] | ≥ 75 | ++
– | CSc1cc(Oc2ccnc(NC(=O)CN(C)C(=O)OC(C)(C)C)c2)ccc1NC(=O)Nc1cc(C(C)(C)C)nn1-c1ccccc1 [(bp), tert-butyl (2-((4-(4-(3-(3-(tert-butyl)-1-phenyl-1H-pyrazol-5-yl)ureido)-3-(methylthio)phenoxy)pyridin-2-yl)amino)-2-oxoethyl)(methyl)carbamate] | ≥ 75 | +
– | CC(C)(C)c1cc(NC(=O)Nc2ccc(Oc3ccnc4[nH]c(=O)cnc34)cc2F)sn1 [(q), 1-(3-(tert-butyl)isothiazol-5-yl)-3-(2-fluoro-4-((3-oxo-3,4-dihydropyrido[2,3-b]pyrazin-8-yl)oxy)phenyl)urea] | 50 to 75 | ++
– | CSc1cc(Oc2ccnc3[nH]c(=O)cnc23)ccc1NC(=O)Nc1nnc(C(C)(C)C)o1 [(cj), 1-(5-(tert-butyl)-1,3,4-oxadiazol-2-yl)-3-(2-(methylthio)-4-((3-oxo-3,4-dihydropyrido[2,3-b]pyrazin-8-yl)oxy)phenyl)urea] | ≥ 75 | +
– | CSc1cc(Oc2ccnc3c2OCC(=O)N3)ccc1NC(=O)Nc1cc(C(C)(C)C)nn1-c1ccccc1 [(ct), 1-(3-(tert-butyl)-1-phenyl-1H-pyrazol-5-yl)-3-(2-(methylthio)-4-((3-oxo-3,4-dihydro-2H-pyrido[3,2-b][1,4]oxazin-8-yl)oxy)phenyl)urea] | ≥ 75 | +
≥ 5 | COc1ccccc1-n1nc(C(C)(C)C)cc1NC(=O)Nc1ccc(Oc2ccnc3[nH]c(=O)cnc23)cc1SC [(av), 1-(3-(tert-butyl)-1-(2-methoxyphenyl)-1H-pyrazol-5-yl)-3-(2-(methylthio)-4-((3-oxo-3,4-dihydropyrido[2,3-b]pyrazin-8-yl)oxy)phenyl)urea] | ≥ 75 | ++
– | CC(=O)Nc1cc(Oc2ccc(NC(=O)Nc3cc(C(C)(C)C)nn3-c3ccccc3)c3ccccc23)ccn1 [(dj), N-(4-((4-(3-(3-(tert-butyl)-1-phenyl-1H-pyrazol-5-yl)ureido)naphthalen-1-yl)oxy)pyridin-2-yl)acetamide] | ≥ 75 | +
– | CC(C)c1cc(Oc2ccnc3[nH]c(=O)cnc23)ccc1NC(=O)Nc1cc(C(C)(C)C)nn1-c1ccccc1 [(bk), 1-(3-(tert-butyl)-1-phenyl-1H-pyrazol-5-yl)-3-(2-isopropyl-4-((3-oxo-3,4-dihydropyrido[2,3-b]pyrazin-8-yl)oxy)phenyl)urea] | ≥ 75 | ++
– | CC(C)(C)c1cc(NC(=O)Nc2cc(F)c(Oc3ccnc4[nH]c(=O)cnc34)cc2F)n(-c2ccccc2)n1 [(bt), 1-(3-(tert-butyl)-1-phenyl-1H-pyrazol-5-yl)-3-(2,5-difluoro-4-((3-oxo-3,4-dihydropyrido[2,3-b]pyrazin-8-yl)oxy)phenyl)urea] | ≥ 75 | ++
– | CSc1cc(Oc2ccnc(C(=O)Nc3ccccc3)c2)ccc1NC(=O)Nc1cc(C(C)(C)C)nn1-c1ccccc1 [(co), 4-(4-(3-(3-(tert-butyl)-1-phenyl-1H-pyrazol-5-yl)ureido)-3-(methylthio)phenoxy)-N-phenylpicolinamide] | 25 to 50 | ++
